# From paper PMC9569529, “Safe and Efficient Sigma1 Ligand: A Potential Drug Candidate for Multiple Sclerosis” (International Journal of Molecular Sciences, 2022)
# How the values were obtained:
# SH-SY5Y = test: Cytotoxicity in human neuroblastoma cell line (MTT/MTS); format: cell-based; conditions: 72 h
# Experimental: Toxicity analysis was performed in the human neuroblastoma cell line (SH-SY5Y), which was cultured in Dulbecco’s Modified Eagle Medium (DMEM, Gibco) supplemented with 2 mM L-glutamine (Invitrogen, Thermo Fisher Scientific Inc. Waltham, MA, USA), […] streptomycin (Invitrogen), 100 IU/mL penicillin (Invitrogen), 1 mM non-essential amino acids (Invitrogen) and 10% (v/v) heat inactivated fetal bovine serum (Sigma Aldrich, Burlington, MA, USA) and grown at 37 °C in a humidified incubator with 5% CO2. […] After 72 h of incubation, cell growth was estimated by the colorimetric MTT assay (CellTiter 96® aqueous one solution cell proliferation assay-MTS, Promega, Madison, WI, USA) according to the manufacturer’s protocol. Absorbance was read at 490 nm and results were expressed as % from the control condition considered as 100%.
# TK6 cells = test: In vitro micronucleus test
# Experimental: The frequency of micronucleated (MN) cells was determined out of at least 2000 mononucleated cells.
# S. typhimurium TA98 = test: Ames test; conditions: 7i 40 µg/plate
# five bacterial strains = test: Ames test, overall conclusion on five bacterial strains; conditions: ±S9, 0.37 to 40 µg/plate
# S1R = target: T1, S1R (Homo sapiens, UniProt Q99720); parameters: method as in PMID 28756263; conditions: selectivity index; cited from earlier work
# T1 construct: host or cells: Jurkat cell membranes
# [1] = system: human peripheral blood mononuclear cells (hPBMCs); test: Immunotoxicity, immunophenotyping by flow cytometry; format: cell-based; conditions: 10 µM, 48 h
# Experimental: Immunotoxicity analysis was performed by Immune Insight CRO (Lille, France) on human peripheral blood mononuclear cells (hPBMCs) from six individual healthy donors. hPBMCs were either non-stimulated (basal) or stimulated using E. coli lipopolysaccharide (LPS, Sigma Aldrich, St. Louis, MO, USA) at 100 ng/mL. hPBMCs were activated with plate-bound anti-CD3 (10 ng/mL) monoclonal antibody (mAb) and incubated at 37 °C for 2 h before the culture and soluble anti-CD28 (10 ng/mL) mAb (Clinisciences, Montrouge, France) were added. Compound 7i was tested at 10 µM. The quality of hPBMC activation was controlled using cytometric analysis based on CD25 staining and proliferation assays based on ^3H-thymidine incorporation. Immune cell subpopulations were immunophenotyped among hPBMCs by flow cytometry on an Attune NxT (Thermofisher Scientific Inc. Waltham, MA, USA). Analyses were performed at 48 h post treatment. The expression of B, CD4, CD8, Th17 and Treg lymphocyte surface antigens was tested using monoclonal mouse anti-human Ab (Miltenyi Biotec SAS, Paris, France) (Table 9). […]
# S. typhimurium TA102 = conditions: Salmonella typhimurium
# S. typhimurium TA1537 = test: Ames test; conditions: 7i 40 µg/plate
# [2] = system: 40 different receptors relevant to CNS disease; parameters: method as in PMID 28756263; conditions: 40 receptors relevant to CNS disease; cited from earlier work
# [3] = 3 h treatment + 24 h recovery, +S9, 68.75 µg/mL
# [4] = 3 h treatment + 24 h recovery, +S9, 137.5 µg/mL
# [5] = 3 h treatment + 24 h recovery, +S9, 275 µg/mL
# [6] = 3 h treatment + 24 h recovery, −S9, 68.78 µg/mL
# [7] = 3 h treatment + 24 h recovery, −S9, 137.5 µg/mL
# [8] = 3 h treatment + 24 h recovery, −S9, 275 µg/mL
# [9] = 27 h continuous treatment, −S9, 68.75 µg/mL
# [10] = 27 h continuous treatment, −S9, 137.5 µg/mL
# [11] = 27 h continuous treatment, −S9, 275 µg/mL
# [12] = +S9, positive control 2-anthramine 0.5
# T1 sequence (Q99720 whole entry): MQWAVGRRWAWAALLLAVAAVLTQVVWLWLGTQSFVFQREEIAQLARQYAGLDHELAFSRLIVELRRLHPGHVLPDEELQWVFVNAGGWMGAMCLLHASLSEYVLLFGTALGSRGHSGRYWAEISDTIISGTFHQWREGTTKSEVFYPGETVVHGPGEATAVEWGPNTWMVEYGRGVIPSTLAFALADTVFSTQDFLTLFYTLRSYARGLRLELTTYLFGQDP
compound,measurement,setting,value
O=C(NCCCNCc1ccccc1)c1ccc(Cl)cc1 [compound 7i-deMe],inhibition at 100 µM,SH-SY5Y,77%
CN(CCCNC(=O)c1ccc(Cl)cc1)Cc1ccccc1 [compound 7i],MN/2 × 10^3 Cells,TK6 cells; [3],10.5
same,RS (%),TK6 cells; [3],106.1%
same,MN/2 × 10^3 Cells,TK6 cells; [4],6.0
same,RS (%),TK6 cells; [4],97.2%
same,MN/2 × 10^3 Cells,TK6 cells; [5],9.0
same,RS (%),TK6 cells; [5],103.7%
same,MN/2 × 10^3 Cells,TK6 cells; [6],6.0
same,RS (%),TK6 cells; [6],94.1%
same,MN/2 × 10^3 Cells,TK6 cells; [7],8.0
same,RS (%),TK6 cells; [7],92.7%
same,MN/2 × 10^3 Cells,TK6 cells; [8],8.0
same,RS (%),TK6 cells; [8],80.0%
same,MN/2 × 10^3 Cells,TK6 cells; [9],1.0
same,RS (%),TK6 cells; [9],86.6%
same,MN/2 × 10^3 Cells,TK6 cells; [10],7.0
same,RS (%),TK6 cells; [10],84.2%
same,MN/2 × 10^3 Cells,TK6 cells; [11],6.0
same,RS (%),TK6 cells; [11],70.1%
same,"genotoxic characteristics (micronucleus, conclusion)","TK6 cells; TK6 cells, ±S9",no genotoxic characteristics
same,Ames TA98 +S9 (Mean revertants/well per title),S. typhimurium TA98; [12],1.1
same,Ames TA98 −S9 (Mean revertants/well per title),"S. typhimurium TA98; −S9, positive control 2-nitrofluorene 0.5",1.1
same,"mutagenic effects (Ames, conclusion)",five bacterial strains,no mutagenic effects
same,Ki Ratio S2R/S1R,S1R,60
same,"effect on percentage of B, Th17, CD4 and CD8 T lymphocyte subpopulations and regulatory T cells",[1]; basal non-stimulating conditions,no effect
same,toxicity on immune subpopulations,[1]; stimulating or not stimulating conditions,no toxicity effect
same,Ames TA102 +S9 (Mean revertants/well per title),S. typhimurium TA102,1.0
same,Ames TA102 −S9 (Mean revertants/well per title),S. typhimurium TA102,0.7
same,Ames TA1537 +S9 (Mean revertants/well per title),S. typhimurium TA1537; [12],1.1
same,Ames TA1537 −S9 (Mean revertants/well per title),"S. typhimurium TA1537; −S9, positive control 9-amino-acridine 1.56",0.9
same,off-target selectivity profile,[2],excellent highly selective profile
